Measured values published in patent publication US20160200762A1, “Bioactive polypeptide DELQ and preparation method as well as application thereof” (SHANGHAI JIAOTONG UNIVERSITY, priority 2012, published 2016).
Where a SMILES comes first, the peptide text is derived from it.

Legend:
[1] = simulated in vitro gastrointestinal digestion (pepsin, then pancreatin), UPLC-Q-TOF-MS analysis; type: in vitro ADME; conditions: 500 μg/mL; pepsin pH 2.0 37° C. 90 min, then pancreatin pH 7.5 37° C. 150 min
Method: The experiment is divided into two steps. Firstly, preparing a 500 μg/mL DELQ solution, adding pepsin with a ratio of 20 mg the pepsin for every gram of the DELQ, adjusting a pH value of the reaction solution to 2.0, reacting with a temperature kept in a 37° C. thermostatic waterbath for 90 min; then adjusting a pH value to 7.5, and adding pancreatin with a ratio of 40 mg the pancreatin for every gram of the DELQ, and reacting with a temperature kept in a 37° C. thermostatic waterbath for 150 min; inactivating disgestive enzymes with a 95° C. waterbath for 5 min; and freeze-drying the reaction solution for obtaining dry powder thereof, and storing at −20° C. for further use.
Picking 0.2 mg powder sample after stimulated in vitro gastrointestinal digestion, adding 50 μL water and 450 μL pure ethanol, thorough shocking before putting into a −20° C. freezer for 20 min, centrifuging at 15000 rpm for 30 min, collecting 400 μL supernatant for UPLC-Q-TOF-MS analysis. […]
According to the above experiment conditions, the bioactive polypeptides DELQ before and after treatment with digestive enzymes are analyzed by UPLC-Q-TOF-MS, a total ion stream obtained is shown in FIG. 11. […]

[2] = in vitro antioxidant activity detection with the [DPPH.] method (radical removing rate); type: biochemical
Method: (1) Preparing 1 mmol/L [DPPH.] Methanol Solution:
Weighting […] [DPPH.] with the analytical balance and dissolving in 1 ml methanol solution for obtaining 1 mmol/L [DPPF.] methanol solution, storing with tinfoil for avoiding light, wherein the [DPPF.] methanol solution is prepared before use.
(2) Standard Curve Detection of [DPPH.] Methanol Solution:
Adding 100 μL [DPPH.] methanol standard curve sample into the 96-hole cell culturing plate according to a Table 2, waiting for 90 min at a room temperature, detecting absorbance values at 517 nm with the microplate reader.
Accordingly, curves are fitted and a regression equation is calculated with Excel, and results thereof are shown in FIG. 8 (the regression equation: y=−0.192x+0.2271, R^2=0.9991). […] From the results, absorbance values and [DPPF.] contents have an inverse relationship, i.e. the less the [DPPH.] content is, the […] the absorbance value will be, which means a stronger radical removing ability.
(3) Antioxidant Activity Detection of the Bioactive Polypeptide DELQ with [DPPH.] Method […]
2) blank group: adding 80 μL 1 mmol/L [DPPF.] methanol solution and 20 μL deionized water into the same 96-hole cell culturing plate for forming a blank group.
After adding the test sample, waiting at the room temperature for 90 min, detecting the absorbance values at 517 nm with the microplate reader, and calculating a radical removing ratio according to a following formula, wherein results thereof are shown in Table 3.

[3] = total antioxidant capacity detection with the FRAP (Ferric Reducing Ability Power) method; type: biochemical; conditions: sample concentration 4.00 mg/mL
Method: (1) Preparing FRAP Working Fluid:
According to the FRAP detection reagent kit, thorough mixing 7.5 mL TPTZ diluent, 750 μL TPTZ solution, and 750 μL detection buffer, incubating in a 37° C. water bath, and using in 2 h.
(2) Drawing a FeSO4 Standard Curve:
Adding 180 μL FRAP working fluid into the 96-hole cell culturing plate, then adding 5 μL FeSO4 standard curve solution according to Table 4, gently mixing, incubating at 37° C. for 3-5 min, and detecting absorbance values at 593 nm with the microplate reader.
FeSO4 concentration and the absorbance value have a good proportional relationship, i.e. the higher the FeSO4 concentration is, the higher absorbance value will be. According to the present invention, FeSO4 standard curve results are shown in FIG. 10, the standard curve has a good linear relationship, wherein a correlation coefficient thereof is 0.998. Precision and accuracy of the FeSO4 curve satisfy testing requirements, and are applicable for subsequent calculation.
(3) Bioactive Polypeptide DELQ Antioxidant Capacity Detection with FRAP Method
Adding 180 μL FRAP working fluid into the 96-hole cell culturing plate, adding 5 μL ddH2O into a blank control hole, adding 5 μL testing sample into a sample hole, adding 5 μL phytic acid into a positive control, gently mixing, incubating at 37° C. for 3-5 min, and detecting absorbance values at 593 nm with the microplate reader. […]

CC(C)C[C@H](NC(=O)[C@H](CCC(=O)O)NC(=O)[C@@H](N)CC(=O)O)C(=O)N[C@@H](CCC(N)=O)C(=O)O [DELQ, Asp-Glu-Leu-Gln] (H-DELQ-OH; N-terminus and C-terminus assumed)
stability under simulated in vitro gastrointestinal digestion [1]: stable

O=P(O)(O)O[C@H]1[C@H](OP(=O)(O)O)[C@@H](OP(=O)(O)O)[C@H](OP(=O)(O)O)[C@@H](OP(=O)(O)O)[C@H]1OP(=O)(O)O [phytic acid]
[DPPH.] radical removing rate ([2]; negative control, concentration not given): 58.49 ± 0.08%
FRAP [3]: 0.0089 mmol/g
corresponding FeSO4 concentration ([3]; 593 nm): 0.0356 ± 0.0055 mmol/L

Cc1c(C)c2c(c(C)c1O)CCC(C)(C(=O)O)O2 (stereo not drawn) [Trolox]
[DPPH.] radical removing rate ([2]; positive control 1, 2.5 mg/mL Trolox): 99.96%
[DPPH.] radical removing rate ([2]; positive control 2, 0.025 g/mL Trolox): 71.08 ± 0.03%
